Assay results reported in US10842892B2, “Methods and apparatus for synthesizing imaging agents, and intermediates thereof” (Lantheus Medical Imaging, Inc., priority 2010, dated 2020).
Values joined by “and” are separate entries in the source; they are usually repeats but may differ in a detail not shown here. Equal values may be shown once.

What was measured:
healthy adults = test: whole-organ biodistribution and residence times by whole-body PET; type: in vivo, human; details: for Mean Percent Administered Dose, Brain / Mean Percent Administered Dose, GI Stomach Wall / Mean Percent Administered Dose, Heart Wall / Mean Percent Administered Dose, Kidneys / Mean Percent Administered Dose, Liver / Mean Percent Administered Dose, Marrow (lumbar) / Mean Percent Administered Dose, Salivary / Mean Percent Administered Dose, Spleen / Mean Percent Administered Dose, Thyroid / Mean Percent Administered Dose, Urinary Bladder / Mean Percent Administered Dose, Whole Body: N = 12, decay corrected
Method: Whole-body PET imaging from head to mid thigh was performed at protocol-specified time-windows.
The attenuation corrected transverse image data slice planes were combined into a single three-dimensional image matrix for each subject and each time point using custom software. These images were then divided into 6 image sets (“anterior”, “posterior”, “salivary”, “thyroid”, “source”, and “full”) of combined coronal plane image data for each subject at each time point, grouping organs with similar anterior to posterior depths. This was done to optimize the ROI creation, and minimize background contribution to the organs contained in each combined coronal plane image. The “anterior” images contained stomach wall, heart wall, and urinary bladder. The “posterior” images contained kidneys, lumbar spine, and spleen (when visible). The “salivary” images contained the salivary glands (parotid and submandibular). The “thyroid” images contained the thyroid. The “full” images combined all of the coronal image planes that contained subject image data and was used for quantification of the brain and liver. The “source” images contained the calibration source.
Absolute radioactivity was determined by normalizing ROI sums by a calibration factor derived from the calibration source. Region counts were also adjusted for activity containing underlying and overlying tissue that was not part of the organ or tissue being quantified by utilization of background regions of interest. Total body region counts were also corrected for off body background counts. Appropriate normalization of region sizes for organ and adjacent regions were made. Unobstructed regions of organs with significant overlap from other activity containing organs were also employed where necessary. In order to estimate the activity in the lower legs (which were not imaged), a region of interest on the upper thigh was utilized. Activities were also normalized where necessary to account for 100% of the injected activity, and to insure conservative (slight over-estimates) determination of absorbed dose.
Kinetic data for brain, heart wall, kidneys, liver, red marrow (lumbar spine regions were utilized), salivary glands, spleen, stomach wall, thyroid, and urinary bladder for the subjects in the study were determined using image quantification methodology. Absolute activity was converted to fractional dose by dividing by the total activity administered. Organ and tissue data were fit using non-linear least-squares regression with sums of exponentials of the form shown in Equation 1, where f and λ are the model parameters that are determined in the fitting process, Fij(t) is the fraction of the total injected activity, t is the time post injection, i is the i^th ROI, j is the j^th subject, and k is the k^th exponential term. Between one and four exponential terms were employed, as appropriate.
The regression was performed using custom software that determines initial parameter values based on the temporal variation of the kinetic data, and the use of pre-tabulated estimates for various time activity scenarios as selected by the user. […] Remainder of Body residence times were determined by subtraction of appropriate organ residence times from whole body residence times. Urinary bladder residence times were determined using the parameters determined by fitting the whole body activity data with a urinary bladder model as implemented in the OLINDA/EXM software with 3.5 hour bladder voiding interval. Red marrow residence time was determined based on a region of interest drawn on a portion of the lumbar spine. The lumbar spine was assumed to contain 16.1% (International Commission on Radiological Protection (ICRP) Publication 23, Report of the Task Group on Reference Man. Pergamon Press. 1975, page 125) of the total red marrow.

viable left ventricle = test: left ventricular viability after myocardial infarction, imaging agent 1 versus FDG; type: in vivo, rat
Method: MI was induced in rats by 30 minutes of\ coronary occlusion followed reperfusion. […] Viable left ventricle was quantified in images as the volume with ≥50% of maximum activity.

[1] = N = 12, Void Interval = 3.5 hours
[2] = whole body coronal images, representative subject

## CC(C)(C)n1ncc(OCc2ccc(COCC[18F])cc2)c(Cl)c1=O [imaging agent 1, 2-t-butyl-4-chloro-5-[4-(2-(^18F)fluoroethoxymethyl)-benzyloxy]-2H-pyridazin-3-1]
Healthy adults; 0.17 hr post-dose
  Mean Percent Administered Dose, Brain: 8.3%
  Mean Percent Administered Dose, GI Stomach Wall: 2.5%
  Mean Percent Administered Dose, Heart Wall: 3.1%
  Mean Percent Administered Dose, Kidneys: 9.4%
  Mean Percent Administered Dose, Liver: 19.1%
  Mean Percent Administered Dose, Marrow (lumbar): 0.3%
  Mean Percent Administered Dose, Salivary: 0.6%
  Mean Percent Administered Dose, Spleen: 0.9%
  Mean Percent Administered Dose, Thyroid: 0.1%
  Mean Percent Administered Dose, Urinary Bladder: 0.3%
  Mean Percent Administered Dose, Whole Body: 100.0%
Healthy adults; 0.50 hr post-dose
  Mean Percent Administered Dose, Brain: 7.9%
  Mean Percent Administered Dose, GI Stomach Wall: 2.4%
  Mean Percent Administered Dose, Heart Wall: 3.2%
  Mean Percent Administered Dose, Kidneys: 6.5%
  Mean Percent Administered Dose, Liver: 18.0%
  Mean Percent Administered Dose, Marrow (lumbar): 0.3%
  Mean Percent Administered Dose, Salivary: 0.7%
  Mean Percent Administered Dose, Spleen: 0.6%
  Mean Percent Administered Dose, Thyroid: 0.1%
  Mean Percent Administered Dose, Urinary Bladder: 0.2%
  Mean Percent Administered Dose, Whole Body: 99.8%
Healthy adults; 0.83 hr post-dose
  Mean Percent Administered Dose, Brain: 7.3%
  Mean Percent Administered Dose, GI Stomach Wall: 2.2%
  Mean Percent Administered Dose, Heart Wall: 3.4%
  Mean Percent Administered Dose, Kidneys: 4.9%
  Mean Percent Administered Dose, Liver: 16.4%
  Mean Percent Administered Dose, Marrow (lumbar): 0.3%
  Mean Percent Administered Dose, Salivary: 0.6%
  Mean Percent Administered Dose, Spleen: 0.4%
  Mean Percent Administered Dose, Thyroid: 0.1%
  Mean Percent Administered Dose, Urinary Bladder: 0.3%
  Mean Percent Administered Dose, Whole Body: 99.7%
Healthy adults; 2.0 hr post-dose
  Mean Percent Administered Dose, Brain: 4.7%
  Mean Percent Administered Dose, GI Stomach Wall: 0.7%
  Mean Percent Administered Dose, Heart Wall: 2.4%
  Mean Percent Administered Dose, Kidneys: 1.6%
  Mean Percent Administered Dose, Liver: 7.5%
  Mean Percent Administered Dose, Salivary: 0.5%
  Mean Percent Administered Dose, Spleen: 0.3%
  Mean Percent Administered Dose, Thyroid: 0.1%
  Mean Percent Administered Dose, Urinary Bladder: 0.9%
  Mean Percent Administered Dose, Whole Body: 98.2%
Healthy adults; 2.5 hr post-dose
  Mean Percent Administered Dose, Brain: 4.1%
  Mean Percent Administered Dose, GI Stomach Wall: 0.7%
  Mean Percent Administered Dose, Heart Wall: 2.5%
  Mean Percent Administered Dose, Kidneys: 1.6%
  Mean Percent Administered Dose, Liver: 7.0%
  Mean Percent Administered Dose, Salivary: 0.5%
  Mean Percent Administered Dose, Spleen: 0.3%
  Mean Percent Administered Dose, Thyroid: 0.1%
  Mean Percent Administered Dose, Urinary Bladder: 1.1%
  Mean Percent Administered Dose, Whole Body: 98.1%
Healthy adults; 3.83 hr post-dose
  Mean Percent Administered Dose, Brain: 3.2%
  Mean Percent Administered Dose, GI Stomach Wall: 0.6%
  Mean Percent Administered Dose, Heart Wall: 2.1%
  Mean Percent Administered Dose, Kidneys: 1.2%
  Mean Percent Administered Dose, Liver: 4.5%
  Mean Percent Administered Dose, Salivary: 0.4%
  Mean Percent Administered Dose, Spleen: 0.3%
  Mean Percent Administered Dose, Thyroid: 0.1%
  Mean Percent Administered Dose, Urinary Bladder: 1.4%
  Mean Percent Administered Dose, Whole Body: 96.8%
Healthy adults; 4.5 hr post-dose
  Mean Percent Administered Dose, Brain: 2.9%
  Mean Percent Administered Dose, GI Stomach Wall: 0.6%
  Mean Percent Administered Dose, Heart Wall: 2.1%
  Mean Percent Administered Dose, Kidneys: 1.1%
  Mean Percent Administered Dose, Liver: 4.7%
  Mean Percent Administered Dose, Salivary: 0.4%
  Mean Percent Administered Dose, Thyroid: 0.1%
  Mean Percent Administered Dose, Urinary Bladder: 1.7%
  Mean Percent Administered Dose, Whole Body: 96.9%
Healthy adults; N = 12
  mean peak uptake, brain: approximately 8.3 % of the injected activity
  mean peak uptake, kidneys: approximately 9.4 % of the injected activity
  mean peak uptake, liver: approximately 19.1 % of the injected activity
Healthy adults; [1]
  Residence Time, Mean, Brain: 0.14 h and 0.138 h
  Residence Time, Mean, GI Stomach Wall: 0.033 h
  Residence Time, Mean, Heart Wall: 0.0728 h
  Residence Time, Mean, Kidneys: 0.0952 h
  Residence Time, Mean, Liver: 0.28 h and 0.277 h
  Residence Time, Mean, Red Marrow: 0.0886 h
  Residence Time, Mean, Remainder of Body: 1.8 h and 1.84 h
  Residence Time, Mean, Salivary: 0.0148 h
  Residence Time, Mean, Spleen: 0.0101 h
  Residence Time, Mean, Thyroid: 0.00331 h
  Residence Time, Mean, Urinary Bladder: 0.0265 h
Healthy adults; [2]
  high and sustained heart retention of ^18F, through time after injection: approximately 5 hours
  time of liver clearing after injection: approximately 2 hours
Viable left ventricle; control rats before surgery
  left ventricular volume: 1.17±0.04 cm3
Viable left ventricle; early stage MI (two days post surgery)
  viable left ventricular tissue volume: 0.94±0.01 cm3
Viable left ventricle; late stage MI (four weeks post surgery)
  viable left ventricular tissue volume: 1.18±0.04 cm3
